Measured values: publication PMC6997118, “Long-acting CCK analogue NN9056 lowers food intake and body weight in obese Göttingen Minipigs” (International Journal of Obesity (2005), 2019)

How the values were obtained:
[1] = set-up: method as in PMID 7084608; settings: cited from earlier work
porcine CCK-1 receptor [2] = target: T1, porcine CCK-1 receptor (Sus scrofa, UniProt I3LFK5); assay: cell-based; settings: pig CCK-1 receptor in COS-7 cells, IP-One, n = 3; read-out: Activation Mean EC50
T1 construct: expressed in transfected cells; host or cells: COS-7
T1 sequence (I3LFK5 1-428): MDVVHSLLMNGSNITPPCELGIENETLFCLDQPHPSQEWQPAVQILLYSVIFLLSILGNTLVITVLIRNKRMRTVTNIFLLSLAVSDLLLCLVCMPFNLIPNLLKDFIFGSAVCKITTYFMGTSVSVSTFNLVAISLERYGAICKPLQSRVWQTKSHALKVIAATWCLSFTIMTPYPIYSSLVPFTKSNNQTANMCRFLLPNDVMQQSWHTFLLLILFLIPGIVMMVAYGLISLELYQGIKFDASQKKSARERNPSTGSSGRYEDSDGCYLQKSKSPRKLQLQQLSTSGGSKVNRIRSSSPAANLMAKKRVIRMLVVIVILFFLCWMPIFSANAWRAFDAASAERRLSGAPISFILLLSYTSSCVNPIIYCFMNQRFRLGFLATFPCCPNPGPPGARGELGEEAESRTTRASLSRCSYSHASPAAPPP

porcine CCK-1 receptor [3] = target: T1, porcine CCK-1 receptor; assay: biochemical; settings: pig CCK-1 receptor over-expressed in COS-7 cells, SPA, n = 3; read-out: Binding Mean IC50
porcine CCK-2 receptor = target: T2, porcine CCK-2 receptor (Sus scrofa, UniProt A0A287A2K5); assay: cell-based; settings: pig CCK-2 receptor in COS-7 cells, IP-One, n = 3; highest dose tested 100 nM; read-out: Activation Mean EC50
T2 construct: expressed in transfected cells; host or cells: COS-7

[4] = obese humans, after 24 weeks of treatment; cited from earlier work

T2 sequence (A0A287A2K5 whole entry): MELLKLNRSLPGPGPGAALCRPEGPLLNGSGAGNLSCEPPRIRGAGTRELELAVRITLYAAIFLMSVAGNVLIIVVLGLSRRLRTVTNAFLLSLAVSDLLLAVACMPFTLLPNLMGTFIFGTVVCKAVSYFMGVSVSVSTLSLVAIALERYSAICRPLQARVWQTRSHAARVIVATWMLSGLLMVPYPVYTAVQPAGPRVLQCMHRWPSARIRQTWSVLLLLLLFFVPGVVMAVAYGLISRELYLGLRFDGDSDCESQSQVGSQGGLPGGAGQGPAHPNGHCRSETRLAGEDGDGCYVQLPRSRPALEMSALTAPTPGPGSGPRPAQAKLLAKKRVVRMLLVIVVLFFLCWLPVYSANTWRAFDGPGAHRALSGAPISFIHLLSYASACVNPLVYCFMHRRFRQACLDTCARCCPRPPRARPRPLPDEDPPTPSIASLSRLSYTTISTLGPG

For Cholecystokinin [CCK], the Circulating half-life [1] is listed as less than 5 min.

For `CSCC[C@H](NC(=O)[C@H](Cc1ccc(OS(=O)(=O)O)cc1)NC(=O)[C@@H](N)CC(=O)O)C(=O)NCC(=O)N[C@@H](Cc1c[nH]c2ccccc12)C(=O)N[C@@H](CCSC)C(=O)N[C@@H](CC(=O)O)C(=O)N[C@@H](Cc1ccccc1)C(N)=O` [CCK-8], the EC50 (porcine CCK-1 receptor [2]) was 0.221 nM, the IC50 (porcine CCK-1 receptor [3]) was 0.199 nM and the EC50 (porcine CCK-2 receptor) was 0.325 nM.

For `CC(C)N(C(=O)CN1C(=O)[C@H](NC(=O)Nc2cccc(C(=O)O)c2)C(=O)N(c2ccccc2)c2ccccc21)c1ccccc1` [GI181771X], the Weight loss [4] is given as “failed to induce weight loss”.
